{
  "source": "paper PMC7574625",
  "about": "(ACS Catalysis, 2020)",
  "key": {"LmrR A92Q": {"target": "T1, LmrR A92Q (Lactococcus cremoris, UniProt A2RI36, A92Q)", "T1 sequence (A2RI36 1-116 A92Q)": "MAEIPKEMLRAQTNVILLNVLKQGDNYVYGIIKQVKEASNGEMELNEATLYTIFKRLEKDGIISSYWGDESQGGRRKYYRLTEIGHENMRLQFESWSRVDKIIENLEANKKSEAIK", "assay": "binding affinity"}, "LmrR_A92E": {"target": "T2, LmrR_A92E (Lactococcus cremoris, UniProt A2RI36, A92E)", "T2 sequence (A2RI36 1-116 A92E)": "T1 sequence (A2RI36 1-116 A92Q) with Q92E", "assay": "binding affinity"}},
  "note": "Positions count from the first letter of the chain named.",
  "data": [
    {"molecule": "[Cu+2].c1cnc2c(c1)ccc1cccnc12", "note": "[Cu(II)-phen]", "values": [
      {"measurement": "Kd", "setting": "LmrR A92Q", "result": "103 ± 41", "unit": "nM"},
      {"measurement": "Kd", "setting": "LmrR_A92E", "result": "65 ± 19", "unit": "nM"}
    ]}
  ]
}
